# How the values were obtained:
# Format in all cases: cell-based
# Target C CJ mRNA = assay: Gene panel canonical junction qPCR assay, Target C; details: decrease in CJ mRNA levels, RT-qPCR
# Protocol: (§1) Compounds described herein were used to modulate RNA transcript abundance in cells. The expression of a target mRNA was measured by detecting the formation of an exon-exon junction in the canonical transcript (CJ). A compound mediated exon-inclusion event was detected by observing an increase in formation of a new junction with an alternative exon (AJ). Real-time qPCR assays were used to detect these splicing switches and interrogate the potency of various compounds towards different target genes. A high-throughput real time quantitative PCR (RT-qPCR) assay was developed to measure these two isoforms of the mRNA (CJ and AJ) for an exemplary gene, HTT, together with a control housekeeping gene, GAPDH or GUSB or PPIA, used for normalization. Briefly, the A673 or K562 cell line was treated with various compounds described herein (e.g., compounds of Formula (I)). After treatment, the levels of the HTT mRNA targets were determined from each sample of cell lysate by cDNA synthesis followed by qPCR.
# (§2) The A673 cell line was cultured in DMEM with 10% FBS. Cells were diluted with full growth media and plated in a 96-well plate (15,000 cells in 100 ul media per well). The plate was incubated at 37° C. with 5% CO2 for 24 hours to allow cells to adhere. An 11-point 3-fold serial dilution of the compounds was made in DMSO then diluted in media in an intermediate plate. Compounds were transferred from the intermediate plate to the cell plate with the top dose at a final concentration of 10 uM in the well. Final DMSO concentration was kept at or below 0.25%. The cell plate was returned to the incubator at 37° C. with 5% CO2 for an additional 24 hours.
# (§3) The K562 cell line was cultured in IMDM with 10% FBS. For K562, cells were diluted with full growth media and plated in either a 96-well plate (50,000 cells in 50 uL media per well) or a 384-well plate (8,000-40,000 cells in 45 uL media per well). An 11-point 3-fold serial dilution of the compounds were made in DMSO then diluted in media in an intermediate plate. Compound was transferred from the intermediate plate to the cell plate with the top dose at a final concentration of 10 uM in the well. Final DMSO concentration was kept at or below 0.25%. Final volume was 100 uL for 96-well plate and 50 uL for 384-well plate. The cell plate was then placed in an incubator at 37° C. with 5% CO2 for 24 hours.
# (§4) The cells were then gently washed with 50 uL-100 uL cold PBS before proceeding to addition of lysis buffer. 30 uL-50 uL of room temperature lysis buffer with DNAse I (and optionally RNAsin) was added to each well. Cells were shaken/mixed thoroughly at room temperature for 5-10 minutes for lysis to take place and then 3 uL-5 uL of room temperature stop solution was added and wells were shaken/mixed again. After 2-5 minutes, the cell lysate plate was transferred to ice for RT-qPCR reaction setup. The lysates could also be frozen at −80° C. for later use.
# (§5) In some cases, a direct lysis buffer was used. An appropriate volume of 3× lysis buffer (10 mM Tris, 150 mM NaCl, 1.5%-2.5% Igepal and 0.1-1 U/uL RNAsin, pH 7.4) was directly added to either K562 or A673 cells in media and mixed by pipetting 3 times. The plates were then incubated at room temperature with shaking/rocking for 20-50 minutes to allow for lysis to take place. After this time, the cell lysate plate was transferred to ice to set up for the RT-qPCR reactions. The lysates could also be frozen at −80° C. for later use.
# (§6) To set up 10 uL RT-qPCR reactions, cell lysates were transferred to 384-well qPCR plates containing the master mix according to the table below. The plates were sealed, gently vortexed, and spun down before the run. The volumes were adjusted accordingly in some instances where the reaction was carried in 20 uL. The table below summarizes the components of the RT-qPCR reactions:
# (§7) The RT-qPCR reaction was performed using a QuantStudio (ThermoFisher) under the following fast cycling conditions. […]
# HTT mRNA = assay: RT-qPCR splicing assay for HTT mRNA isoforms (canonical junction CJ and alternative junction AJ); details: A673 or K562 cell line, 24 hours compound treatment; for IC50: decrease in CJ mRNA; for AC50: increase in AJ mRNA
# Protocol: as §1
# Cells-to-CT 1-step kit: ThermoFisher A25602, Cells-to-CT lysis reagent: ThermoFisher 4391851C, TaqMan™ Fast Virus 1-Step Master Mix: ThermoFisher 4444436 GAPDH: VIC-PL, ThermoFisher 4326317E (Assay: Hs99999905_m1)—used for K562/suspension cell lines GUSB: VIC-PL, ThermoFisher 4326320E (Assay: Hs99999908_m1)—used for K562/suspension cell lines PPIA: VIC-PL, ThermoFisher 4326316E (Assay: Hs99999904_m1)—used for A673/adherent cell lines
# as §2, §3, §4
# as §5, with “use. […]” for “use.”
# HTT CJ mRNA = assay: Gene panel canonical junction qPCR assay, HTT; details: decrease in CJ mRNA levels, RT-qPCR
# Protocol: as §1, §2, §3, §4, §5, §6, §7
# SMN2 CJ mRNA = assay: Gene panel canonical junction qPCR assay, SMN2; details: decrease in CJ mRNA levels, RT-qPCR
# Protocol: as §1, §2, §3, §4, §5, §6, §7
SMILES,IC50 (Target C CJ mRNA),IC50 (HTT mRNA),AC50 (HTT mRNA),IC50 (HTT CJ mRNA),IC50 (SMN2 CJ mRNA)
"CC1(C)CC(Nc2ccc3c(n2)CCOc2cc(-c4cn[nH]c4)ccc2-3)CC(C)(C)N1 [Compound 141, 13-(1H-pyrazol-4-yl)-N-(2,2,6,6-tetramethylpiperidin-4-yl)-10-oxa-6-azatricyclo[9.4.0.0^[2,7]]pentadeca-1(11),2(7),3,5,12,14-hexaen-5-amine]",1 to 10 µM,> 10 µM,> 10 µM,> 10 µM,–
"C[C@H]1C[C@H](N(C)c2ccc3c(c2)OCc2cc(-c4cn[nH]c4)ccc2-3)CCN1 [Compound 102, (2S,4R)—N,2-dimethyl-N-[8-(1H-pyrazol-4-yl)-6H-benzo[c]chromen-3-yl]piperidin-4-amine]",> 10 µM,> 10 µM,> 10 µM,> 10 µM,–
CN(c1ccc2c(n1)COc1cc(-n3cccn3)ccc1-2)[C@@H]1C[C@H]2CC[C@@H](C1)N2 [Compound 109],–,0.1 to 1 µM,0.1 to 1 µM,–,–
CC1(C)CC(N(c2ccc3c(n2)OCc2cc(-n4cccn4)ccc2-3)C2CC2)CC(C)(C)N1 [Compound 204],–,1 to 10 µM,> 10 µM,–,–
Cc1cnc(-c2ccc3c(c2)COc2nc(N(C)[C@@H]4C[C@H]5CC[C@@H](C4)N5)ccc2-3)o1 [Compound 206],–,0.1 to 1 µM,0.1 to 1 µM,–,–
"CC1(C)CC(Nc2ccc3c(c2)COc2cc(-n4cccn4)ccc2-3)CC(C)(C)N1 [Compound 118, 2,2,6,6-tetramethyl-N-[3-(pyrazol-1-yl)-6H-benzo[c]chromen-8-yl]piperidin-4-amine]",–,> 10 µM,> 10 µM,> 10 µM,> 10 µM
"CN(c1ccc2c(c1)COc1cc(-n3cccn3)ccc1-2)C1CC(C)(C)NC(C)(C)C1 [Compound 117, N,2,2,6,6-pentamethyl-N-[3-(pyrazol-1-yl)-6H-benzo[c]chromen-8-yl]piperidin-4-amine]",–,> 10 µM,> 10 µM,> 10 µM,> 10 µM
"C[C@@H]1C[C@H](N(C)c2ccc3c(c2)OCc2cc(-c4cn[nH]c4)ccc2-3)CCN1 [Compound 101, (2R,4R)—N,2-dimethyl-N-[8-(1H-pyrazol-4-yl)-6H-benzo[c]chromen-3-yl] piperidin-4-amine]",> 10 µM,–,> 10 µM,–,–
CN(c1ccc2c(c1)CCOc1cc(-c3cn[nH]c3)ccc1-2)[C@@H]1C[C@H]2CC[C@@H](C1)N2 [Compound 112],> 10 µM,–,–,–,–
c1cnn(-c2ccc3c(c2)OCc2cc(N[C@@H]4C[C@H]5CC[C@@H](C4)N5)ccc2-3)c1 [Compound 119],1 to 10 µM,> 10 µM,> 10 µM,> 10 µM,–
"c1cc2c(cc1N[C@@H]1C[C@H]3CC[C@@H](C1)N3)CCOc1cc(-c3cn[nH]c3)ccc1-2 [Compound 132, N-[5-(1H-pyrazol-4-yl)-8-oxatricyclo[9.4.0.0^[2,7]]pentadeca-1(11),2(7),3,5,12,14-hexaen-13-yl]-8-azabicyclo [3.2.1] octan-3-amine]",> 10 µM,> 10 µM,> 10 µM,> 10 µM,–
CN(c1ccc2c(c1)COc1cc(-n3cccn3)ccc1-2)[C@@H]1C[C@H]2CC[C@@H](C1)N2 [Compound 105],–,> 10 µM,> 10 µM,> 10 µM,> 10 µM
"CN(c1ccc2c(n1)CCOc1cc(-c3cn[nH]c3)ccc1-2)C1CC(C)(C)NC(C)(C)C1 [Compound 114, N-methyl-13-(1H-pyrazol-4-yl)-N-(2,2,6,6-tetramethylpiperidin-4-yl)-10-oxa-6-azatricyclo[9.4.0.0^[2,7]]pentadeca-1(11),2(7),3,5,12,14-hexaen-5-amine]",< 0.1 µM,0.1 to 1 µM,< 0.1 µM,0.1 to 1 µM,–
c1cnn(-c2ccc3c(c2)COc2nc(N(C4CC4)[C@@H]4C[C@H]5CCC[C@@H](C4)N5)ccc2-3)c1 [Compound 203],–,1 to 10 µM,1 to 10 µM,–,–
"CN(c1ccc2c(c1)CCOc1cc(-n3cccn3)ccc1-2)[C@@H]1C[C@H]2CC[C@@H](C1)N2 [Compound 138, (1R,3S,5S)—N-methyl-N-[5-(pyrazol-1-yl)-8-oxatricyclo[9.4.0.0^[2,7]]pentadeca-1(11),2(7), 3,5,12,14-hexaen-13-yl]-8-azabicyclo [3.2.1] octan-3-amine]",1 to 10 µM,1 to 10 µM,1 to 10 µM,1 to 10 µM,–
"CN(c1ccc2c(c1)OCc1cc(-c3cn[nH]c3)ccc1-2)[C@@H]1C[C@H]2CC[C@@H](C1)N2 [Compound 104, (1R,3S,5S)—N-Methyl-N-[8-(1H-pyrazol-4-yl)-6H-benzo[c]chromen-3-yl]-8-azabicyclo[3.2.1]octan-3-amine]",> 10 µM,> 10 µM,> 10 µM,> 10 µM,–
c1cnn(-c2ccc3c(c2)COc2nc(N(C4CC4)[C@@H]4C[C@H]5CC[C@@H](C4)N5)ccc2-3)c1 [Compound 205],–,1 to 10 µM,0.1 to 1 µM,–,–
CCN(c1ccc2c(n1)OCc1cc(-n3cccn3)ccc1-2)[C@@H]1C[C@H]2CCC[C@@H](C1)N2 [Compound 195],1 to 10 µM,–,–,0.1 to 1 µM,0.1 to 1 µM
"c1cc2c(cc1-c1cn[nH]c1)OCCc1nc(N[C@@H]3C[C@H]4CC[C@@H](C3)N4)ccc1-2 [Compound 140, N-[(1R,3S,5S)-8-azabicyclo[3.2.1]octan-3-yl]-13-(1H-pyrazol-4-yl)-10-oxa-6-azatricyclo[9.4.0.0^[2,7]]pentadeca-1(11),2(7),3,5,12,14-hexaen-5-amine]",–,> 10 µM,> 10 µM,> 10 µM,> 10 µM
"CN(c1ccc2c(n1)CCOc1cc(-c3cn[nH]c3)ccc1-2)[C@@H]1C[C@H]2CC[C@@H](C1)N2 [Compound 127, N-[(1R,3S,5S)-8-azabicyclo[3.2.1]octan-3-yl]-N-methyl-13-(1H-pyrazol-4-yl)-10-oxa-6-azatricyclo[9.4.0.0^[2,7]]pentadeca-1(11),2(7),3,5,12,14-hexaen-5-amine]",–,> 10 µM,> 10 µM,> 10 µM,> 10 µM
"CN(c1ccc2c(n1)CCOc1cc(-n3cccn3)ccc1-2)[C@@H]1C[C@H]2CC[C@@H](C1)N2 [Compound 128, N-[(1R,3S,5S)-8-azabicyclo[3.2.1]octan-3-yl]-N-methyl-13-(pyrazol-1-yl)-10-oxa-6-azatricyclo[9.4.0.0^[2,7]]pentadeca-1(11),2(7),3,5,12,14-hexaen-5-amine]",> 10 µM,> 10 µM,> 10 µM,> 10 µM,–
